Measured values as given in US11471506B2, “VIP antagonists and uses in treating cancer” (Emory University, priority 2018, dated 2022).
Entries after “also recorded” stand apart in the source; their conditions may differ. Ends that are not written are not given here.

How the values were obtained:
[1] = tested on: T cells; assay: in vitro T cell proliferation in response to stimulation with anti-CD3 antibodies, with or without exogenous VIP; type: cell-based; settings: for reversal / block of the suppressive effect of exogenous VIP on T cell proliferation: exogenous VIP peptide added
Description: Whether VIPhyb treatment would enhance T cell activation and cytotoxicity in response to melanoma, which can be highly immunogenic, was tested.
The anticancer activity of treatment with VIPhyb appears to be T cell mediated.

[2] = tested on: B16F1 cells; assay: B16F1 melanoma syngeneic model in B6 Albino mice, VIPhyb alone; type: in vivo, mouse
Description: To investigate VIPhyb as an immunotherapy for melanoma, and to determine the best route of administration, Luciferase-expression B16F1 cells were injected into B6 Albino syngeneic recipients and given 10 μg of VIPhyb peritumorally or subcutaneously on the contralateral flank beginning 1 day before tumor inoculation and continuing daily until the experimental endpoint.
Whether VIPhyb has an effect on adaptive immunity was testes. Mice with tumors that exceeded 500 mm^3 in volume were euthanized and their splenocytes phenotyped using flow cytometry. Blood was also collected for a complete blood count (CBC) to determine amount of peripheral white blood cells (WBCs). Of particular interest was the expansion of CD8+ T cells to corroborate the in vitro data, and expression of the inhibitory molecule PD-1.

[3] = tested on: melanoma; assay: direct effect of VIPhyb on melanoma cells; type: cell-based; settings: melanoma expressing VPAC2
[4] = tested on: KPC luc pancreatic cancer cells; assay: MTT assay of viable KPC luc cells after VIPhyb; type: cell-based, murine; settings: 0, 0.5, 1, 3 and 5 uM VIPhyb, 24 hours
Description: KPC luc pancreatic cancer cells were cultured in a 96 well plate for 24 hours with different concentrations of VIPhyb (0, 0.5, 1, 3 and 5 uM). Number of viable cells after 24 hours were quantified via MTT assay.

[5] = tested on: luciferase expressing splenocytes from B6 mice; assay: splenocyte co-culture with irradiated B16F1 and B16F10 cells, proliferation by BLI; type: cell-based, mouse; settings: co-culture with irradiated B16 cells, anti-CD3 pre-coated plates, low-dose IL-2, 3 days
Description: Splenocytes isolated from 3 naïve luciferase+ B6 mouse were cultured with irradiated B16 cells and with or without VIPhyb in triplicate, and proliferation measured with BLI.
Whether combination of a VIPhyb with a PD-1 inhibitor could enhance an adaptive immune response to the more aggressive B16F10 model in vitro was investigated. Therefore, irradiated B16F1 and B16F10 cells were co-cultured with luciferase expressing splenocytes from B6 mice. Cells were placed in 96-well plates pre-coated with anti-CD3 antibody and low-dose recombinant murine IL-2 for 3 days and assessed proliferation by BLI.

[6] = tested on: B16F10 cells; assay: B16F10 melanoma model in B6 Albino mice, VIPhyb and/or anti-PD-1 antibody; type: in vivo, mouse; settings: VIPhyb 10 μg s.c. daily for 10 days, PD-1 antibody 200 μg i.p. every 3 days, three doses, versus untreated
Description: Tumor volumes were calculated as […].
B16F10 cells were injected into B6 Albino mice. VIPhyb (10 μg) was administered subcutaneously every day for 10 days. Three doses of 200 μg of an PD-1 antibody was intraperitoneally administered every 3 days. A combination both VIPhyb and the PD-1 antibody were also administered.

[7] = in vitro stability of the peptide on the nanoparticle; type: physicochemical; settings: nanoparticle-conjugated peptide

KPRRPYTDNYTRLRKQMAVKKYLNSILN [VIPhyb, hybrid peptide of neurotensin (6-11) and VIP (7-28); antagonist of VIP signalling]
in vitro T cell proliferation in response to stimulation with anti-CD3 antibodies [1]: dose-dependent enhancement
reversal / block of the suppressive effect of exogenous VIP on T cell proliferation [1]: reversal of the suppressive effect of exogenous VIP peptide; also recorded: reversed exogenous VIP mediated splenic T cell suppression
survival ([2]; B16F1, 10 μg VIPhyb daily): no significant difference
tumor volume / tumor growth ([2]; B16F1, 10 μg VIPhyb daily, digital calipers twice weekly, versus untreated): no significant change; also recorded: did not have a significant effect; also recorded: does not affect tumor size
overall tumor burden by bioluminescent imaging ([2]; B16F1, once weekly BLI): no tumor reduction
peripheral WBCs ([2]; peripheral blood, complete blood count): nonsignificant modest increase
tumor burden between the two routes of administration ([2]; peritumorally versus subcutaneously on the contralateral flank): no difference in tumor burden
B cells ([2]; spleen upon euthanasia): nonsignificant increase
NK cells ([2]; spleen upon euthanasia): nonsignificant increase
dendritic cell subtypes ([2]; spleen upon euthanasia): nonsignificant increase
CD4+ T cells ([2]; spleen upon euthanasia, flow cytometry): nonsignificant modest increase
CD8+ T cells ([2]; spleen upon euthanasia, flow cytometry, versus PBS/saline-treated controls): significantly more; also recorded: Increased CD8+ T cell Proliferation; also recorded: more effector CD8+ T cells; also recorded: bolsters CD8+ proliferation
frequency of IFNγ, TNF, Granzyme B, and IL-2-producing cells in the CD4+ and CD8+ compartments ([2]; spleen, intracellular cytokine staining, versus PBS treated controls): no significant difference
frequency of CD4+ and CD8+ T cells expressing PD-1, CTLA-4, and Lag-3 ([2]; spleen, versus PBS treated controls): no significant difference
direct effect on melanoma growth, invasiveness, and modulation of inhibitory surface molecules [3]: absence of a direct effect
number of viable cells (direct killing) [4]: does not directly kill
splenocyte / T cell proliferation [5]: not enough to promote expansion of splenocytes; also recorded: lack of splenocyte proliferation
tumor volume / tumor growth [6]: lower average tumor volume

VIPhyb-NP: VIPhyb with C-terminal GGGGSC linker (SEQ ID NO: 3) conjugated to a 30 nm Pluronic-stabilized polypropylene sulfide nanoparticle (KPRRPYTDNYTRLRKQMAVKKYLNSILNGGGGSC; also: conjugated to 30 nm Pluronic-stabilized polypropylene sulfide nanoparticle)
in vitro T cell proliferation in response to stimulation with anti-CD3 antibodies [1]: conserved
reversal / block of the suppressive effect of exogenous VIP on T cell proliferation [1]: able to block the effects of exogenous VIP at higher concentrations
potency of the nanoparticle formulation ([1]; nanoparticle formulation versus free peptide): increased potency
stabilization of the peptide in vitro [7]: stabilize the peptide in vitro
